The values below come from ChEMBL document CHEMBL5543151, “Rational Design of a Novel Class of Human ClpP Agonists through a Ring-Opening Strategy with Enhanced Antileukemia Activity” (J Med Chem, 2024).

Sequence of ATP-dependent Clp protease proteolytic subunit, mitochondrial (Q16740 whole entry): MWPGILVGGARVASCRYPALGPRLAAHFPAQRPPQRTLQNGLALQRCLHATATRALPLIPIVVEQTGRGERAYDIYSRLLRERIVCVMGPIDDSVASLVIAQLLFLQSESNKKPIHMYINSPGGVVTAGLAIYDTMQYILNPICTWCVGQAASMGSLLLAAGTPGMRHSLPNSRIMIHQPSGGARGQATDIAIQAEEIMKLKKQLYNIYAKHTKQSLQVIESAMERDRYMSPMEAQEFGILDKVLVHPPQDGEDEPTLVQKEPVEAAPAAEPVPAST

Test system in one data set: not listed separately
Briefly: MRT (0 to 12hrs) in Sprague-Dawley rat at 5 mg/kg, iv measured upto 12 hrs by LC-MS analysis. In kind it is ADME, organism-based. Conditions: in vivo.
For the molecule `Cc1ccccc1CN1C(=O)C2=C(CCN(Cc3ccccc3)C2)N2CCN=C12.Cl`, the MRT last at 12 h was determined as 42 min.

Test system in another data set: not listed separately
Kind of data set: MRT (0 to 12hrs) in Sprague-Dawley rat at 15 mg/kg, po measured upto 12 hrs by LC-MS analysis. The class given is ADME, organism-based. Conditions: in vivo.
`Cc1ccccc1CN1C(=O)C2=C(CCN(Cc3ccccc3)C2)N2CCN=C12.Cl` gave an MRT last at 12 h of 1.3 h.

Another data set has as its system MV4-11. Kind of data set: Potency index, ratio of ONC201 IC50 to test compound IC50 for anti-leukemia activity against human MV4-11 cells assessed as decrease in cell proliferation incubated for 72 hrs by CCK-8 assay.
Conditions: not given
In kind it is functional.
On to `N#Cc1cccc(CN2CCc3[nH]c(NCc4ccc(F)c(F)c4)nc(=O)c3C2)c1`, for which the “Ratio IC50” value amounted to 20.

Turning to `O=c1nc(NCc2ccc(F)c(F)c2)[nH]c2c1CN(Cc1cc(F)cc(F)c1)CC2`, the “Ratio IC50” value worked out at 20.

Test system in another data set: not listed separately
Briefly: Half life in Sprague-Dawley rat at 5 mg/kg, iv measured upto 12 hrs by LC-MS analysis. The class given is ADME, organism-based. Conditions: in vivo.
With `Cc1ccccc1CN1C(=O)C2=C(CCN(Cc3ccccc3)C2)N2CCN=C12.Cl`, the half-life is 66 min.

Test system in another data set: not listed separately
Briefly: Cmax in Sprague-Dawley rat at 15 mg/kg, po measured upto 12 hrs by LC-MS analysis. In kind it is ADME, organism-based. The conditions noted are these: in vivo.
`Cc1ccccc1CN1C(=O)C2=C(CCN(Cc3ccccc3)C2)N2CCN=C12.Cl` had a Cmax of 448 ng/mL.

Test system in the next data set: not listed separately
Briefly: Tmax in Sprague-Dawley rat at 15 mg/kg, po measured upto 12 hrs by LC-MS analysis. The class given is ADME, organism-based. Conditions: in vivo.
`Cc1ccccc1CN1C(=O)C2=C(CCN(Cc3ccccc3)C2)N2CCN=C12.Cl`: the Tmax turned out to be 30 min.

Test system in another data set: not listed separately
Kind of data set: Bioavailability in Sprague-Dawley rat at 5 mg/kg, iv measured upto 12 hrs by LC-MS analysis. In kind it is ADME, organism-based. The conditions noted are these: in vivo.
The molecule `Cc1ccccc1CN1C(=O)C2=C(CCN(Cc3ccccc3)C2)N2CCN=C12.Cl` had a bioavailability of 14.8%.

Test system in another data set: not listed separately
Kind of data set: AUC(0 to 12hrs) in Sprague-Dawley rat at 5 mg/kg, iv measured upto 12 hrs by LC-MS analysis. In kind it is ADME, organism-based. Conditions: in vivo.
As to `Cc1ccccc1CN1C(=O)C2=C(CCN(Cc3ccccc3)C2)N2CCN=C12.Cl`, the AUC(0-t) at 12 h amounted to 1270 ng·h/mL.

A further data set concerns MV4-11. Kind of data set: Anti-leukemia activity against human MV4-11 cells assessed as decrease in cell proliferation incubated for 72 hrs by CCK-8 assay. Conditions: MV4-11, 72 h. In kind it is functional, cell-based.
With `O=c1nc(NCc2ccccc2)[nH]c2c1CN(Cc1ccccc1Cl)CC2`, the half-inhibitory concentration (IC50) was 1030 nM.

Consider `Cc1ccc(CNc2nc(=O)c3c([nH]2)CCN(Cc2ccccc2)C3)cc1`, for which the IC50 worked out at 1610 nM.

Consider `O=c1nc(NCc2ccccc2)[nH]c2c1CN(Cc1cc(F)cc(F)c1)CC2`, for which the IC50 is 900 nM.

As to `O=c1nc(NCc2cccc(F)c2)[nH]c2c1CN(Cc1ccccc1)CC2`, the IC50 is over 10000 nM.

With `O=c1nc(NCc2ccc(Br)cc2)[nH]c2c1CN(Cc1ccccc1)CC2`, the 50% inhibitory concentration (IC50) amounted to 930 nM.

For `O=c1nc(NCc2ccccc2)[nH]c2c1CN(Cc1ccc(Cl)cc1)CC2`, the concentration for half-maximal inhibition (IC50) is 970 nM.

As for `O=c1nc(NCc2ccccc2)[nH]c2c1CN(Cc1ccc(F)cc1)CC2`, the half-maximal inhibitory concentration (IC50) is over 10000 nM.

In the case of `COc1ccccc1CNc1nc(=O)c2c([nH]1)CCN(Cc1ccccc1)C2`, the half-inhibitory concentration (IC50) was over 10000 nM.

Take `O=c1nc(NCc2ccccc2)[nH]c2c1CN(Cc1cccc(F)c1)CC2`: the IC50 was found to be 830 nM.

As to `Cc1ccccc1CNc1nc(=O)c2c([nH]1)CCN(Cc1cccc(C#N)c1)C2`, the IC50 was over 10000 nM.

With `O=c1nc(NCc2ccccc2Cl)[nH]c2c1CN(Cc1ccccc1)CC2`, the half-maximal inhibitory concentration (IC50) is over 10000 nM.

Turning to `CCN1CCc2[nH]c(NCc3ccccc3)nc(=O)c2C1`, the concentration for half-maximal inhibition (IC50) is over 10000 nM.

For `Cc1cccc(CN2CCc3[nH]c(NCc4ccccc4)nc(=O)c3C2)c1`, the IC50 is 2400 nM.

Turning to `O=c1nc(NCc2ccccc2)[nH]c2c1CN(Cc1cccc(Cl)c1)CC2`, the IC50 came to 930 nM.

Turning to `Cc1ccccc1CNc1nc(=O)c2c([nH]1)CCN(Cc1ccccc1)C2`, the half-maximal inhibitory concentration (IC50) was found to be 1510 nM.

As to `N#Cc1cccc(CN2CCc3[nH]c(NCc4ccc(Cl)c(Cl)c4)nc(=O)c3C2)c1`, the half-maximal inhibitory concentration (IC50) turned out to be 60 nM.

Turning to `O=c1nc(NCc2ccccc2Br)[nH]c2c1CN(Cc1ccccc1)CC2`, the IC50 is over 10000 nM.

Take `N#Cc1cccc(CN2CCc3[nH]c(NCc4ccc(C(F)(F)F)cc4)nc(=O)c3C2)c1`: the IC50 was over 10000 nM.

For `N#Cc1cccc(CN2CCc3[nH]c(NCc4ccc(F)c(F)c4)nc(=O)c3C2)c1`, the IC50 amounted to 30 nM.

Consider `O=c1nc(NCc2ccccc2)[nH]c2c1CN(Cc1ccc(F)c(F)c1)CC2`, for which the IC50 came out at 1200 nM.

Regarding `CS(=O)(=O)c1ccc(CN2CCc3[nH]c(NCc4ccccc4)nc(=O)c3C2)cc1`, the 50% inhibitory concentration (IC50) was over 10000 nM.

For `O=c1nc(NCc2ccc3c(c2)OCO3)[nH]c2c1CN(Cc1ccccc1)CC2`, the 50% inhibitory concentration (IC50) was 2900 nM.

For `CCNc1nc(=O)c2c([nH]1)CCN(Cc1ccccc1)C2`, the IC50 is over 10000 nM.

With `O=c1nc(NCc2ccccc2)[nH]c2c1CN(CC1CC1)CC2`, the IC50 is over 10000 nM.

Turning to `COc1cccc(CN2CCc3[nH]c(NCc4ccccc4)nc(=O)c3C2)c1`, the concentration for half-maximal inhibition (IC50) amounted to 1680 nM.

In the case of `Cc1ccccc1CN1CCc2[nH]c(NCc3ccccc3)nc(=O)c2C1`, the half-maximal inhibitory concentration (IC50) is over 10000 nM.

Turning to `O=c1nc(NCc2cccc(Cl)c2)[nH]c2c1CN(Cc1ccccc1)CC2`, the IC50 stood at 1880 nM.

On to `O=c1nc(NCc2ccc(F)c(F)c2)[nH]c2c1CN(Cc1cc(F)cc(F)c1)CC2`, for which the 50% inhibitory concentration (IC50) amounted to 30 nM.

Test system in another data set: not listed separately
Briefly: Half life in Sprague-Dawley rat at 15 mg/kg, po measured upto 12 hrs by LC-MS analysis. The class given is ADME, organism-based. Conditions: in vivo.
In turn, `Cc1ccccc1CN1C(=O)C2=C(CCN(Cc3ccccc3)C2)N2CCN=C12.Cl` gave a half-life of 84 min.

Test system in another data set: not listed separately
Briefly: Clearance in Sprague-Dawley rat at 5 mg/kg, iv measured upto 12 hrs by LC-MS analysis. The class given is ADME, organism-based. The conditions noted are these: in vivo.
Regarding `Cc1ccccc1CN1C(=O)C2=C(CCN(Cc3ccccc3)C2)N2CCN=C12.Cl`, the clearance is 96.7 mL/min/kg.

Test system in another data set: not listed separately
Kind of data set: AUC(0 to 12hrs) in Sprague-Dawley rat at 15 mg/kg, po measured upto 12 hrs by LC-MS analysis. The class given is ADME, organism-based. Conditions: in vivo.
Molecule `Cc1ccccc1CN1C(=O)C2=C(CCN(Cc3ccccc3)C2)N2CCN=C12.Cl` had an exposure AUC(0-t) at 12 h of 565 ng·h/mL.

The next data set has as its target ATP-dependent Clp protease proteolytic subunit, mitochondrial (Homo sapiens, UniProt Q16740). Kind of data set: Agonist activity at human Casein lysing protease P (HsClpP) assessed as increase in peptidase activity using fluorescent peptide AC-WLA-AMC as substrate measured after 2 hrs by […].
Conditions: not given
For `O=c1nc(NCc2ccccc2)[nH]c2c1CN(Cc1ccccc1Cl)CC2`, the EC50 is 1350 nM.

On to `Cc1ccc(CNc2nc(=O)c3c([nH]2)CCN(Cc2ccccc2)C3)cc1`, for which the EC50 amounted to 1110 nM.

For `O=c1nc(NCc2ccccc2)[nH]c2c1CN(Cc1cc(F)cc(F)c1)CC2`, the EC50 was 950 nM.

As for `O=c1nc(NCc2cccc(F)c2)[nH]c2c1CN(Cc1ccccc1)CC2`, the EC50 was over 10000 nM.

Consider `O=c1nc(NCc2ccc(Br)cc2)[nH]c2c1CN(Cc1ccccc1)CC2`, for which the EC50 amounted to 1950 nM.

`O=c1nc(NCc2ccccc2)[nH]c2c1CN(Cc1ccc(Cl)cc1)CC2`: the EC50 is 1210 nM.

With `O=c1nc(NCc2ccccc2)[nH]c2c1CN(Cc1ccc(F)cc1)CC2`, the EC50 is over 10000 nM.

Take `COc1ccccc1CNc1nc(=O)c2c([nH]1)CCN(Cc1ccccc1)C2`: the EC50 is over 10000 nM.

For `O=c1nc(NCc2ccccc2)[nH]c2c1CN(Cc1cccc(F)c1)CC2`, the EC50 is 2020 nM.

In the case of `Cc1ccccc1CNc1nc(=O)c2c([nH]1)CCN(Cc1cccc(C#N)c1)C2`, the EC50 was over 10000 nM.

For `O=c1nc(NCc2ccccc2Cl)[nH]c2c1CN(Cc1ccccc1)CC2`, the EC50 was over 10000 nM.

Consider `CCN1CCc2[nH]c(NCc3ccccc3)nc(=O)c2C1`, for which the EC50 is over 10000 nM.

For the molecule `Cc1cccc(CN2CCc3[nH]c(NCc4ccccc4)nc(=O)c3C2)c1`, the EC50 was 2250 nM.

With `O=c1nc(NCc2ccccc2)[nH]c2c1CN(Cc1cccc(Cl)c1)CC2`, the EC50 amounted to 1090 nM.

Take `Cc1ccccc1CNc1nc(=O)c2c([nH]1)CCN(Cc1ccccc1)C2`: the EC50 was 1220 nM.

For `N#Cc1cccc(CN2CCc3[nH]c(NCc4ccc(Cl)c(Cl)c4)nc(=O)c3C2)c1`, the EC50 came to 820 nM.

With `O=c1nc(NCc2ccccc2Br)[nH]c2c1CN(Cc1ccccc1)CC2`, the EC50 is over 10000 nM.

In the case of `N#Cc1cccc(CN2CCc3[nH]c(NCc4ccc(C(F)(F)F)cc4)nc(=O)c3C2)c1`, the EC50 is over 10000 nM.

Regarding `N#Cc1cccc(CN2CCc3[nH]c(NCc4ccc(F)c(F)c4)nc(=O)c3C2)c1`, the EC50 turned out to be 870 nM.

Consider `O=c1nc(NCc2ccccc2)[nH]c2c1CN(Cc1ccc(F)c(F)c1)CC2`, for which the EC50 stood at 2100 nM.

With `CS(=O)(=O)c1ccc(CN2CCc3[nH]c(NCc4ccccc4)nc(=O)c3C2)cc1`, the EC50 was over 10000 nM.

For the molecule `O=c1nc(NCc2ccc3c(c2)OCO3)[nH]c2c1CN(Cc1ccccc1)CC2`, the EC50 is 520 nM.

Turning to `CCNc1nc(=O)c2c([nH]1)CCN(Cc1ccccc1)C2`, the EC50 was over 10000 nM.

As to `O=c1nc(NCc2ccccc2)[nH]c2c1CN(CC1CC1)CC2`, the EC50 was over 10000 nM.

In the case of `COc1cccc(CN2CCc3[nH]c(NCc4ccccc4)nc(=O)c3C2)c1`, the EC50 is over 10000 nM.

In the case of `Cc1ccccc1CN1CCc2[nH]c(NCc3ccccc3)nc(=O)c2C1`, the EC50 was over 10000 nM.

Regarding `O=c1nc(NCc2cccc(Cl)c2)[nH]c2c1CN(Cc1ccccc1)CC2`, the EC50 is over 10000 nM.

For the molecule `O=c1nc(NCc2ccc(F)c(F)c2)[nH]c2c1CN(Cc1cc(F)cc(F)c1)CC2`, the EC50 stood at 510 nM.

Test system in a further data set: not listed separately
Kind of data set: Cmax in Sprague-Dawley rat at 5 mg/kg, iv measured upto 12 hrs by LC-MS analysis. In kind it is ADME, organism-based. The conditions noted are these: in vivo.
Turning to `Cc1ccccc1CN1C(=O)C2=C(CCN(Cc3ccccc3)C2)N2CCN=C12.Cl`, the Cmax was found to be 970 ng/mL.
